According to ChEMBL document CHEMBL1151641, “Antitumor agents, 71. Nudaphantin, a new cytotoxic germacranolide, and elephantopin from Elephantopus nudatus” (1985):
Converted amounts (≈) assume the structure as drawn.

How the values were obtained:
Type in all cases: functional
P388 [1] = test: In vivo antileukemic activity against mouse P388 cells at 10 mg/kg relative to control
P388 [2] = test: In vivo antileukemic activity against mouse P388 cells at 40 mg/kg relative to control
KB = test: Cytotoxicity against human KB cells

Row | SMILES | T/C (P388 [1]) [%] | T/C (P388 [2]) [%] | ED50 (KB) [µg/mL] | EC50 (KB; Homo sapiens, KB, read-out: ED50 (the source's name)) [µg/mL]
1 | C=C(C)C(=O)O[C@H]1CC2=C[C@@H](C[C@@]3(C)O[C@@H]3[C@H]3OC(=O)C(=C)[C@@H]31)OC2=O [ELEPHANTOPIN] | 160 | 171 | 0.32 (≈ 0.888 µM) | –
2 | C=C(C)C(=O)O[C@H]1CC2=C[C@@H](C[C@@]3(C)O[C@@H]3[C@H]3OC(=O)C(=C)[C@@H]31)OC2OCC (some centres undefined) [NUDAPHANTIN] | – | – | – | 0.31 (≈ 0.794 µM)
